Reference: patent publication US7601501B2, “Controlling osteogenesis by inhibition of osteogenic suppressors” (The Scripps Research Institute, priority 2006, dated 2009)
“Also recorded” adds a separate entry of the source.

Legend:
[1] = system: human mesenchymal stem cells (hMSCs); assay: Compound treatment: adipogenic differentiation / cell fate switch of hMSCs; assay type: cell-based; settings: for differentiation of hMSCs into mature adipocytes: combined treatment with dexamethasone; for adipogenic differentiation of hMSCs promoted by compound: especially in the presence of dexamethasone (DEX); for cell fate switch from osteogenic to adipogenic: hMSCs treated with the OS media
Protocol: Cells were rinsed with PBS twice, fixed in 10% formalin solution for 20 minutes, rinsed with PBS twice and dH2O once, washed with propylene glycol for 5 minutes, and stained with Oil red in propylene glycol (I2722A, Newcomer Supply) for 30 minutes. Cells were then washed with 85% propylene glycol for 5 minutes, rinsed with dH2O 3 times and preserved in 50% glycerol.
(§1) 8-CPT-cAMP, Na (cat# 116812), 5-Iodotubercidin (cat# 407900), Prostaglandin E2 (PGE2, cat# 538904), SB 202190 (cat# 559388) and U0126 (cat# 662005) were purchased from Calbiochem; N6,2′-O-Dibutyryl-cAMP (cat# D0260-5MG), forskolin (cat# F6886), ascorbic acid 2-phosphate (cat# 49752-10G), β-glycerophosphate (G-6251), dexamethasone (D8893), 3-isobutyl-1-methylxanthine (IBMX, I5879) and Insulin (I 9278) were purchased from Sigma/Aldrich/Fluka.
(§2) Since the targeted genes are all positively involved in intracellular cAMP signaling, we tested the effect of two compounds of opposing function on cAMP production on osteogenic differentiation of hMSCs, ADK inhibitor 5-iodotubercidin and ADCY activator forskolin (Cottam, H. B. et al., J Med Chem 36:3424-3430 (1993); de Souza, N. J. et al., Med Res Rev 3:201-219 (1983)). […] ATP has been shown as a ligand for P2RY11 receptor (Communi et al., 1997). […] The present observations are consistent with the conclusion that […] in hMSCs, and vice versa.

[2] = system: human mesenchymal stem cells (hMSCs); assay: Compound treatment: OS-induced osteogenic differentiation of hMSCs (ALP / alizarin red staining); assay type: cell-based; settings: for osteogenic effect of the OS media on hMSCs: compound combined with OS treatment, ALP and/or alizarin red staining
Protocol: as §1, §2

[3] = system: human mesenchymal stem cells (hMSCs); assay: Alizarin red staining for calcium phosphate deposits (ECM mineralization, bone cell maturation); assay type: cell-based; settings: for intensity of alizarin red staining (bone cell maturation), 3+9OS: OS started three days after siRNA transfection and continued for 9 days
Protocol: Cells were rinsed with PBS twice, stained in alizarin red solution (cat# vw3611-2, VWR) for 8 minutes at room temperature, washed with PBS again, fixed in 10% formalin solution (cat# HT-5014, Sigma) for 20 minutes, then rinsed with water and air dried.
Bone cell maturation is accompanied by extracellular matrix (ECM) mineralization (John Bilezikian et al., Principles of bone biology, Vol 1, 2nd edn: Academic Press) (2002)). […] […] These observations are consistent with the conclusion that the targeted genes of the ten effective hit siRNAs not only play inhibitory roles in osteogenic specification of hMSCs, but also in bone cell maturation. […] Furthermore, in osteoporotic patients, the number of adipocytes was increased in the marrow, implying a change of cell fate disposition from osteoblast lineage to adipocyte lineage (Justesen, J. et al., Biogerontology 2:165-171 (2001); Meunier, P. et al., Clin Orthop Relat Res 80:147-154 (1971)). We therefore examined the effect of our hit siRNAs on adipogenic differentiation of hMSCs by combined treatment with an adipogenic inducing cocktail (100 μg/ml IBMX, 1 μM DEX and 10 μg/ml insulin).

CREB = assay: Western blot of phospho-CREB in transfected hMSCs; assay type: cell-based, human; settings: 3 days after transfection, compared to siCon treated or untreated
Protocol: Cell lyses buffer contains 20 mM Tris pH8.0, 1 mM EDTA, 150 mM NaCl and 0.5% NP-40, and before usage, protease inhibitor cocktail (Cat# p8340, Sigma, 1:100 dilution) and phosphatase inhibitor cocktail 2 (Cat# p5726, sigma, 1:100 dilution) were added. Proteins (60 μg/well) were separated in 12% Novex Tris-Glycine gel (Cat# EC6008 box, Invitrogen) and transferred to Nitrocellulose membrane (Cat# LC2001, Invitrogen) using the XCell II blot module system (Cat# EI9051, Invitrogen). The membrane was blocked in 5% milk/PBST for 1 hour at room temperature, incubated over night at 4 degree with primary antibody, washed 3 times with PBST (0.05% Tween 20 in PBS), followed by one hour incubation with secondary antibody in 5% milk/PBST and 3 times wash with PBST at room temperature. For antibody against pCREB however, PBST was substituted with PBS in all steps except for the last one. Antibody-bound proteins were detected utilizing ECL Western blotting detection reagent (Amersham Biosciences).
Anti-phospho-CREB was purchased from Upstate Biotechnology (cat# 06-519); Anti-phospho-p38 was purchased from Cell signaling technology (cat# 9910).
To find out whether CREB (cAMP Responding Element Binding protein), a common downstream effector of cAMP signaling pathway, is involved in mediating cAMP signaling controlled differentiation of hMSCs, we checked the expression level of the active form of CREB proteins in cells 3 days after siP2RY11, siADK, siGNAS, siSLC12a2 or siCon transfection. […] To further examine the role of CREB in osteogenesis and adipogenesis, a synthetic 24-mer CRE decoy oligonucleotide that can compete with endogenous CRE enhancers for binding proteins was transfected into hMSCs (Park, Y. G. et al., J Biol Chem 274:1573-1580 (1999)), which were then subjected to the treatment of osteogenic or adipogenic induction media.

## Nc1ncnc2c1nc(Sc1ccc(Cl)cc1)n2[C@@H]1O[C@@H]2COP(=O)(O)O[C@H]2[C@H]1O [8-CPT-cAMP]
[1]
  differentiation of hMSCs into mature adipocytes: sufficient to differentiate hMSCs into mature adipocytes
  adipogenic differentiation of hMSCs promoted by compound: promoted hMSCs to undergo adipogenic differentiation
  cell fate switch from osteogenic to adipogenic: could switch cell fate commitment from osteogenic to adipogenic
[1]; listed as CPT-cAMP
  cell fate switch from osteogenic to adipogenic: could switch cell fate determination from osteogenic to adipogenic differentiation

## Nc1ncnc2c1ncn2[C@@H]1O[C@H](COP(=O)(O)OP(=O)(O)OP(=O)(O)O)[C@@H](O)[C@H]1O [ATP]
[2]; OS and ATP added on the third day after siRNA transfection, continued for a week
  siP2RY11 and siSLC12a2 induced osteogenesis in combination with OS (ALP staining): dosage-dependent inhibitory effect
[2]
  osteogenic effect of the OS media on hMSCs: inhibited; also recorded: dosage-dependent inhibitory effect
[1]; dosage dependent manner
  number of cells undergoing adipogenic differentiation: slightly increases

## CCCC(=O)Nc1ncnc2c1ncn2[C@@H]1O[C@@H]2COP(=O)(O)O[C@H]2[C@H]1OC(=O)CCC [DB-cAMP, N6,2′-dibutyryl-cAMP]
[1]
  differentiation of hMSCs into mature adipocytes: sufficient to differentiate hMSCs into mature adipocytes
  adipogenic differentiation of hMSCs promoted by compound: promoted hMSCs to undergo adipogenic differentiation

## CC(C)Cn1c(=O)n(C)c(=O)c2[nH]cnc21 [IBMX, 3-isobutyl-1-methylxanthine]
[1]
  adipogenic differentiation of hMSCs promoted by compound: promoted hMSCs to undergo adipogenic differentiation
  cell fate switch from osteogenic to adipogenic: could switch cell fate determination from osteogenic to adipogenic differentiation

## COc1cccc(-c2cc(=O)c3ccccc3o2)c1N [PD98059]
[2]
  osteogenic effect of the OS media on hMSCs: inhibited the osteogenic inducing effect of OS

## CCCCC[C@H](O)/C=C/[C@H]1[C@H](O)CC(=O)[C@@H]1C/C=C\CCCC(=O)O [PGE2, Prostaglandin E2]
[1]
  cell fate switch from osteogenic to adipogenic: could switch cell fate determination from osteogenic to adipogenic differentiation

## Oc1ccc(-c2nc(-c3ccncc3)c(-c3ccc(F)cc3)[nH]2)cc1 [SB202190]
[2]
  osteogenic effect of the OS media on hMSCs: inhibited the osteogenic inducing effect of OS

## CCCAGGUCUCCGAUGAACU (siRNA; listed as RNA, chemistry not fully specified) [siBCL212, siRNA targeting BCL2-like 2]
[3]
  intensity of alizarin red staining (bone cell maturation), 3+9OS: modest enhancement

## CCCGAAAACAUUGCUAGCA (siRNA; listed as RNA, chemistry not fully specified) [siGBDR1, siRNA targeting putative glialblastoma cell differentiation-related]
[3]
  intensity of alizarin red staining (bone cell maturation), 3+9OS: dramatically enhanced

## CCUCUUCGUGGCUACAUCU (siRNA; listed as RNA, chemistry not fully specified) [siSLC12a2, siRNA targeting solute carrier family 12, member 2]
[3]
  intensity of alizarin red staining (bone cell maturation), 3+9OS: dramatically enhanced
CREB
  level of pCREB protein (Western blot): increased

## GCCACACAAAGCAGCAACA (siRNA; listed as RNA, chemistry not fully specified) [siADK, siRNA targeting adenosine kinase]
[3]
  intensity of alizarin red staining (bone cell maturation), 3+9OS: dramatically enhanced
[3]; siRNA initial 2-4 days followed by OS (2+6OS, 3+5OS, 4+4OS), vs siCon
  intensity of alizarin red staining, sequential siRNA then OS: clearly enhanced the intensity of alizarin red staining; also recorded: enhancing effect
CREB
  level of pCREB protein (Western blot): increased

## GGAGAUCAACAAGCAUUCA (siRNA; listed as RNA, chemistry not fully specified) [siADCY8, siRNA targeting adenylate cyclase 8]
[3]
  intensity of alizarin red staining (bone cell maturation), 3+9OS: weak enhancement

## UCGAAGAUUGAGGACUACU (siRNA; listed as RNA, chemistry not fully specified) [siGNAS, siRNA targeting GNAS complex locus]
[3]
  intensity of alizarin red staining (bone cell maturation), 3+9OS: dramatically enhanced
CREB
  level of pCREB protein (Western blot): increased

## UGCCAAAGAGGAUGUACAU (siRNA; listed as RNA, chemistry not fully specified) [siTBX3, siRNA targeting T-box 3 (ulnar mammary syndrome)]
[3]
  intensity of alizarin red staining (bone cell maturation), 3+9OS: no significant effect

## UGCGAGCCAAGAUGGACAA (siRNA; listed as RNA, chemistry not fully specified) [siKCNT1, siRNA targeting potassium channel, subfamily T, member 1]
[3]
  intensity of alizarin red staining (bone cell maturation), 3+9OS: dramatically enhanced

## UGCGGGUGCUCAACGUGGA (siRNA; listed as RNA, chemistry not fully specified) [siP2RY11, siRNA targeting purinergic receptor P2Y, G-protein coupled, 11]
[3]
  intensity of alizarin red staining (bone cell maturation), 3+9OS: dramatically enhanced
CREB
  level of pCREB protein (Western blot): increased

## UGUGCUACACAGUCAUUAC (siRNA; listed as RNA, chemistry not fully specified) [siBIRC4, siRNA targeting baculoviral IAP repeat-containing 4]
[3]
  intensity of alizarin red staining (bone cell maturation), 3+9OS: weak enhancement
